These results are taken from US8618149B2, “Inhibition of biofilms in plants with imidazole derivatives” (North Carolina State University, priority 2007, dated 2013).

In general, % Inhibition refers to the drop in the measured response relative to a control, in per cent. Read a low % Inhibition as little suppression.

Experiment [1] has as its system Xanthomonas strain Xcv 135. The experiment can be described thus: Biofilm inhibition, crystal violet biofilm attachment assay on PVC microtiter wells. It is filed as cell-based. The conditions noted are these: biofilm formation, starting OD600 0.55, 28° C., 6 hours, static. As to the method: Activity Testing. A standard crystal violet reporter assay is employed to assess the effect of compounds on the formation of biofilms. Among others, the following strains are tested:
Bacteria are allowed to form biofilms in a multi-well plate in the absence or presence of one or more compounds. Planktonic (or free growing) bacteria are then removed, wells washed vigorously, and crystal violet added. Crystal violet stains the remaining bacteria which, following ethanol solubilization, is quantitated by spectrophotometry (A540). Time-dependent and concentration-dependent analysis of each compound are performed.
Activity testing of imidazole library members on Xanthomonas. Biofilm formation on PVC microtiter wells was accomplished using Xanthomonas strains Xcv 135 (known to infect peppers and tomatoes) and Xcv 5 (known to infect tomatoes but not peppers) as models. The Starting Optical Density (OD at 600 nm) for biofilm attachment assay was 0.55, the temperature for this assay was 28° C., the duration of incubation was 6 hours under, and the assay was static.
Biofilm inhibition results are as follows for screens with Xcv 135. The Xcv 5 strain is tested in the same manner.

The subject of experiment [2] is marine α-proteobacterium R. salexigens. The conditions noted are these: documented in literature (Yamada et al. 1997); cited from earlier work.
In another experiment the test system is calcium channels. To be noted: known from literature (Bickmeyer, Toxicon 2005); cited from earlier work.

The structures appear in SMILES notation. Where a name gives a salt, the structure may show the parent alone.

With `NC[C@@H]1Cc2nc(N)[nH]c2C[C@H]1CN` (racemic) [Formula (II)(a)(±)], the “% Inhibition at 20 μM (vs. Xcv 135)” value in experiment [1] came to 0%.
On to `Nc1ncc(/C=C/CNC(=O)c2cc(Br)c(Br)[nH]2)[nH]1` [oroidin, oroidin hydrochloride], for which, in experiment [2], the “anti-biofouling properties: biofilm development in R. salexigens” value is “inhibiting biofilm development”.
Take `Nc1nc2c([nH]1)C[C@@H](CNC(=O)c1cc(Br)c[nH]1)[C@H](CNC(=O)c1cc(Br)c[nH]1)C2` (racemic) [Formula (II)(b)(v)(trans)(±)]: the “% Inhibition at 20 μM (vs. Xcv 135)” value in experiment [1] worked out at 0%.
For the compound `Nc1nc([C@@H]2c3[nH]c(N)nc3C[C@H](CNC(=O)c3cc(Br)c[nH]3)[C@H]2CNC(=O)c2cc(Br)c(Br)[nH]2)c[nH]1` [bromoageliferin], the “anti-biofouling properties: biofilm development in R. salexigens” value in experiment [2] was “inhibiting biofilm development”. Moreover, the “activity of calcium channels” value with calcium channels is given as “modulate the activity of calcium channels”.
On to `Nc1nc2c([nH]1)C[C@@H](CNC(=O)c1cc(Br)c(Br)[nH]1)[C@H](CNC(=O)c1cc(Br)c(Br)[nH]1)C2` (racemic) [Formula (II)(b)(vi)(trans)(±)], for which, in experiment [1], the “% Inhibition at 20 μM (vs. Xcv 135)” value was 71%.
